Results reported in patent US5124322A, “Dipeptide collagenase inhibitors” (Beecham Group p.l.c., priority 1988, dated 1992).
Read-outs that look alike come from different tables or passages of the source.

Molecular target: T1, human lung fibroblast collagenase (Homo sapiens, UniProt P03956)
T1 construct: from culture supernatants from the human lung fibroblast cell line, WI-38; endogenous in cells; host or cells: WI-38 human lung fibroblast cell line (culture supernatant)
T1 sequence (P03956 100-469): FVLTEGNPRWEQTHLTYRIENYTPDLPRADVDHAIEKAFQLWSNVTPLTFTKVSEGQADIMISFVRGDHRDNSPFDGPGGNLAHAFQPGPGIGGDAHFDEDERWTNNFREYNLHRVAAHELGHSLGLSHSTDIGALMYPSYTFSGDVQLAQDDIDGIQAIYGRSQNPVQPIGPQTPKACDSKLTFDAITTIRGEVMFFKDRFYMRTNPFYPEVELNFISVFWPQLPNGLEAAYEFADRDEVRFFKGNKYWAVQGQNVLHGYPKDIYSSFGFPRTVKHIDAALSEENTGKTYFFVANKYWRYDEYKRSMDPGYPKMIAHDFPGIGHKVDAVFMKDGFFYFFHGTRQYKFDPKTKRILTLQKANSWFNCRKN
Assay: Collagenase inhibitor assay, human lung fibroblast collagenase (14C-collagen fibril degradation)
Type: biochemical
Conditions: collagenase from WI-38 culture supernatants
Experimental: The test is performed essentially as in Cawston and Barrett, Anal. Biochem. 99, 340-345 (1979). Compounds for testing are dissolved in methanol and added to collagenase (purified from cultures of rabbit bone or from culture supernatants from the human lung fibroblast cell line, WI-38) in buffer. In order to ensure that thiol collagenase inhibitors remained unoxidised, β-mercaptoethanol may be incorporated in the methanol solvent and/or the diluent buffers. The minimal direct effect of β-mercaptoethanol on the degradation of collagen by human or rabbit collagenase is controlled for. After a 5-15 min pre-incubation at 37° C., the assay tubes are cooled to 4° C. and ^14 C-acetylated rat skin […] collagen is added. The assay tubes are incubated at 37° C. overnight. The ^14 C-collagen forms insoluble fibrils which are the substrate for the enzyme.
To terminate the assay, the assay tubes are spun at 12000 rpm for 15 min. Undigested ^14 C-collagen is pelleted, while digested ^14 C-collagen is found as soluble peptides in the supernatant. A sample of the supernatant is taken for liquid scintillation counting.
The activity of collagenase inhibitors (IC50 : 50% inhibitory concentration) is expressed as that concentration of compound that inhibits a known (standard) concentration of enzyme by 50%.

[1] = * = +mercaptoethanol, read-out: IC50, Inhibition of human lung fibroblast collagenase, +mercaptoethanol
[2] = without mercaptoethanol, read-out: IC50, Inhibition of human lung fibroblast collagenase

Compound	IC50 [1] [nM]	IC50 [2] [nM]
4-Chloro-2-mercapto-N-[2-(3-indolyl)-1-(S)-(methyl-aminocarbonyl)ethyl]-α-(2-methylpropyl)phenylpropanamide [Example 8]	190	1500
CNC(=O)[C@H](Cc1ccc(OC)cc1)NC(=O)C(Cc1ccc(Cl)cc1S)CC(C)C (stereo partly drawn) [Example 5, 4-Chloro-2-mercapto-N-[2-(4-methoxyphenyl)-1-(S)-(methylaminocarbonyl)ethyl]-α-(2-methylpropyl)phenylpropanamide]	250	1800
